IC50, peri-hematomal edema and hematoma size data for 13 compounds are collected here from US20240109897A1, “MODULATORS OF FPR1 AND METHODS OF USING THE SAME” (BEIJING TIANTAN HOSPITAL, priority 2021, published 2024).

Molecules are shown by their SMILES.

One may read the IC50 as the point on the concentration scale where inhibition reaches its midpoint.

The target of one assay is T1, FPR1 (UniProt P21462).
T1 sequence (P21462 1-350): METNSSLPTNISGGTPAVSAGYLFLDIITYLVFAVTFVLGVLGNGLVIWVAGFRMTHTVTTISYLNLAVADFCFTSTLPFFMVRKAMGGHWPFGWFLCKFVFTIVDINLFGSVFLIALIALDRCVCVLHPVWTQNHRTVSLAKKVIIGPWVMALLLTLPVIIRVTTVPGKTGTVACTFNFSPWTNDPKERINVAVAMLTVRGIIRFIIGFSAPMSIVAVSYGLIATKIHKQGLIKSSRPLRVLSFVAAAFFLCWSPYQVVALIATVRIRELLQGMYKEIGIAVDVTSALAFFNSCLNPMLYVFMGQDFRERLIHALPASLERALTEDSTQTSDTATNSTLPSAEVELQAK
Put plainly: fMLP-FPR1 mediated calcium signaling assay in FPR1-overexpressing 293T cells. The class given is cell-based, human or mouse. The note with it: inhibition of fMLP-FPR1 mediated intracellular calcium change; hFPR1 or mFPR1 overexpressing 293T cells; 10 min preincubation; INDO-1 AM, FACS. On the procedure: The effects of the compounds of this disclosure on regulating the FPR1-mediated cell signaling were measured by monitoring the cellular calcium level change, as illustrated by the exemplary examples in Table 2. The dose response of the illustrated examples are reported categorically using the following ranking criteria: *** (IC50≤100 nM); ** (IC50≥100 to ≤1000 nM); * (IC50≥1000 to ≤10,000 nM); N.D.—not detected.
The coding DNA sequence (CDS) of human FPR1 (NM_001193306) and mouse FPR1 (NM_013521) were cloned and inserted to the lentivirus vector GV367 (Vector information:http://www.genechem.com.cn/index/supports/tool_search.html?keywords=GV367) under the conduction of pCMV promoter. 293T cells were cultured in H-DMEM supplemented with 10% FBS and 1% penicillin-streptomycin (PS) at 37° C. in 5% CO2 Incubator. 293T cells were transfected with lentivirus vector GV367 containing the CDS of human or mouse FPR1 for 24 h and then cultured with complete medium for another 48 h. At 72 h after transfected, cells were passaged, and 5 μg/ml puromycin was added to screen FPR1-transfected 293T cells. The overexpression of human or mouse FPR1 in 293 T cells were detected by immunostaining with anti-mouse or human FPR1 antibodies (Biolegend or Antibody Online).
Cultured hFPR1 or mFPR1 overexpressing 293T cells were labeled with 1 μM INDO-1 AM calcium sensor dye (eBioscience) for 30 min at 37° C. After washed with 1×PBS, cells were resuspended with H-DMEM containing 3% FBS, and were maintained on ice prior to the measurement of intracellular calcium concentration. To measure the inhibitory potency of designed potential FPR1 antagonists, hFPR1 or mFPR1 overexpressing 293T cells were incubated with the compound for 10 min at room temperature. The cytoplasmic calcium levels were then measured by FACS Aria III at 37° C. prior to and after the stimulation of fMLP. We defined the immunofluorescence intensity of indo-1 AM before adding fMLP as the basal value, and the intensity at the peak immunofluorescence reduction after adding fMLP as minimum value for each sample. The change of intracellular calcium was calculated as follow: (basal value−minimum value)/basal value×100%. The IC50 of each compound in inhibiting fMLP-FPR1 mediated intracellular calcium concentration in 293T cells were automatically calculated with Prism 8.0.2 software (GraphPad) after inputting a series of change of intracellular calcium at multiple concentration gradients (from 0 nM to 100 μM).
(A change in cytosolic calcium serves as a functional read-out for many receptors and channels.)

For a further assay, the system named is ICH mice. The experiment in a line: MRI lesion, hematoma and perihematomal edema volume in intracerebral hemorrhage (ICH) mouse model. The class given is in vivo. The note with it: brain MRI, vs vehicle. From the text: The intracerebral hemorrhage (ICH) model in mice was used to illustrate the protective benefits of the compounds of this disclosure, and FIG. 1 depicts the procedure in preparing this model. ICH was induced in C57 B/L6 male mice by the injection of an autologous blood or collagenase as previously described (Lauer et al., Circulation 124: 1654-1662 (2011); Rynkowski et al., Nat. Protoc. 3:122-128 (2008)). Mice were anesthetized using isoflurane inhalation and fixed on a stereotactic frame. A burr hole was drilled on the right side of the skull at 2.3 mm lateral to the midline and 0.5 mm anterior to the bregma. For the autologous blood model, 30 μl of non-heparinized blood was withdrawn from the angular vein. The first 5 μl blood was injected at a depth of 3 mm beneath the hole, and the rest 25 μl blood were injected at 3.7 mm beneath the hole with a rate of 1 μl/min. In the collagenase model, 0.038 U of the bacterial collagenase (in 0.5 μl saline) was infused to the striatum (0.5 mm anterior, 2.3 mm right lateral, and 3.5 mm deep relative to bregma) at a speed of 0.5 μl/min. Mice on the sham control were injected with an equal volume of saline. Throughout the procedure, the body temperature was maintained at 37° C. with a homeothermic blanket. After the surgery, mice were under observation with free access to food and water. […]
The total lesion volume was measured on the 7T small-animal MM scanner (Bruker, Corp., USA) as described (Li et al., 2017). The T2-weighted water imaging was recorded with following parameters (repetition time (TR)=4500 ms, echo time (TE)=65.5 ms, field of view (FOV)=28×28 mm^2, image matrix=256×256, at 0.5-mm slice thickness). […] The volumes were manually outlined and calculated by multiplying the sum of the volume by the distance between sections (0.5 mm) using MIPAV software. PHE volumes were calculated as total lesion volume minus hematoma volume. MRI data were analyzed by two investigators blinded to experimental groups.

Turning to `CO[C@H]1CC[C@@H](N2C(=O)c3n[nH]c(-c4cc(C)ccc4O)c3C2c2ccc(C(F)(F)F)cc2)CC1` (mixture of isomers) [Compound 7, rac-3-(2-hydroxy-5-methylphenyl)-5-((1S,4S)-4-methoxycyclohexyl)-4-(4-(trifluoromethyl)phenyl)-4,5-dihydropyrrolo[3,4-c]pyrazol-6(2H)-one], at FPR1, the IC50 lay within 1 to 10 µM. As for `O=C1c2n[nH]c(-c3ccccn3)c2C(c2ccc(Cl)cc2)N1C1CCOCC1` (racemic) [Comp14], the peri-hematomal edema entry in the assay with ICH mice (at 3 days after ICH) was “significantly reduced”. For the same compound, the hematoma size result with ICH mice is given as “no difference”. With `Cc1ccc(O)c(-c2[nH]nc3c2C(c2ccc(C(F)(F)F)cc2)N(C2CCNCC2)C3=O)c1` (racemic) [Compound 4, Rac-3-(2-hydroxy-5-methylphenyl)-5-(piperidin-4-yl)-4-(4-(trifluoromethyl)phenyl)-4,5-dihydropyrrolo[3,4-c]pyrazol-6(2H)-one], the IC50 on FPR1 was 1 to 10 µM. The same measure, in the same setting: for `CC(=O)N1CCC(N2C(=O)c3n[nH]c(-c4cc(C)ccc4O)c3C2c2ccc(C(F)(F)F)cc2)CC1` (racemic) [Compound 5, Rac-5-(1-acetylpiperidin-4-yl)-3-(2-hydroxy-5-methylphenyl)-4-(4-(trifluoromethyl)phenyl)-4,5-dihydropyrrolo[3,4-c]pyrazol-6(2H)-one] the value was 0.1 to 1 µM; for `COC1CCC(N2C(=O)c3n[nH]c(-c4cc(C)ccc4O)c3C2c2ccc(C(F)(F)F)cc2)CC1` (racemic) [Compound 8, Rac-3-(2-hydroxy-5-methylphenyl)-5-((1r,4r)-4-methoxycyclohexyl)-4-(4-(trifluoromethyl)phenyl)-4,5-dihydropyrrolo[3,4-c]pyrazol-6(2H)-one], 1 to 10 µM; for `O=C1c2n[nH]c(-c3cc(Cl)ccc3O)c2C(c2ccc(C(F)(F)F)cc2)N1C1CCOCC1` (racemic) [Compound 9, Rac-3-(5-chloro-2-hydroxyphenyl)-5-(tetrahydro-2H-pyran-4-yl)-4-(4-(trifluoromethyl)phenyl)-4,5-dihydropyrrolo[3,4-c]pyrazol-6(2H)-one], 0.1 to 1 µM. As to `O=C1c2n[nH]c(-c3cc(F)ccc3O)c2C(c2ccc(Cl)cc2)N1C1CCOCC1` (racemic) [Compound 10, Rac-4-(4-chlorophenyl)-3-(5-fluoro-2-hydroxyphenyl)-5-(tetrahydro-2H-pyran-4-yl)-4,5-dihydropyrrolo[3,4-c]pyrazol-6(2H)-one], on FPR1, the IC50 lay in the range of 1 to 10 µM. Same read-out and setting: for `O=C1c2n[nH]c(-c3cc(F)ccc3O)c2C(c2ccc(C(F)(F)F)cc2)N1C1CCOCC1` (racemic) [Compound 13, rac-3-(5-fluoro-2-hydroxyphenyl)-5-(tetrahydro-2H-pyran-4-yl)-4-(4-(trifluoromethyl)phenyl)-4,5-dihydropyrrolo[3,4-c]pyrazol-6(2H)-one] the value was 1 to 10 µM; for `O=C1c2n[nH]c(-c3ccccn3)c2C(c2ccc(Cl)cc2)N1C1CCOCC1` (racemic) [Compound 14, Rac-4-(4-chlorophenyl)-3-(pyridin-2-yl)-5-(tetrahydro-2H-pyran-4-yl)-4,5-dihydropyrrolo[3,4-c]pyrazol-6(2H)-one], 1 to 10 µM.

Turning to `Cc1ccc(O)c(-c2[nH]nc3c2[C@H](c2ccc(C(F)(F)F)cc2)N(C2CCOCC2)C3=O)c1` (single isomer, unassigned) [Compound 2], the IC50 at FPR1 is 0.1 to 1 µM. Still for that read-out and setting: for `Cc1ccc(O)c(-c2[nH]nc3c2[C@@H](c2ccc(C(F)(F)F)cc2)N(C2CCOCC2)C3=O)c1` (single isomer, unassigned) [Compound 3] the value was 1 to 10 µM; for `O=C1c2n[nH]c(-c3cc(F)ccc3O)c2[C@H](c2ccc(Cl)cc2)N1C1CCOCC1` (single isomer, unassigned) [Compound 11], 1 to 10 µM; for `O=C1c2n[nH]c(-c3cc(F)ccc3O)c2[C@@H](c2ccc(Cl)cc2)N1C1CCOCC1` (single isomer, unassigned) [Compound 12], 1 to 10 µM.
